# Tests used:
# [1] = test system: Expi293 cells transfected with His-Halotag; test: Library cell penetration assay, cell crash method (Example 6); format: in vitro ADME, human
# Experimental: Animal cells (e.g., Expi293 cells or human HEK 293 cells) were seeded in tissue culture plates and cultured in Opti-MEM media. The cells were set in PETG flasks at a concentration of 6×10^5 cells/mL and a volume of 30 mL. The cell viability was checked to be above 90-93%. The flasks were placed in a shaking incubator at 300 rpm in 8% CO2.
# After 24 hours of incubation, for each flask, one 1.5-mL Lo-bind tube and one 2-mL Lo-Bind tube were prepared. In the 1.5-mL tube, 30 μg of polyhistidine-tagged halotag (His-Halotag) plasmid and Opti-MEM media were added to provide a 1-mL mixture. In the 2-mL Lo-Bind tube, 60 μL of ExpiFectamine and 940 μL of Opti-MEM were added. After 5 minutes, the plasmid/Opti-MEM mixture was added to the ExpiFectamine/Opti-MEM mixture. The combined mixture was placed in an incubator at room temperature for 20 minutes, which was subsequently added to the flask.
# After 48 hours of transfection, the transfected cells were checked for viability (90% or higher). The transfected cells were transferred to a protein Lo-Bind Eppendorf 96-well deep well plate (1000 μL), where each well contained 1 million cells in 500 μL of Expi293 media.
# Solutions of candidate compounds, either individual peptides or peptides from a peptide library (DPLs), were received at a stock concentration of 10 mM and diluted in DMSO and kept in a “Source Plate”. For DPLs, the peptide concentration in the “Source Plate” was 1 mM, whereas for individual peptides, the concentration was either 100 μM (for a final concentration of 100 nM) or 10 μM (for a final concentration of 10 nM). […] of the DPL or individual peptide solution was added in triplicates to the 96-well plate. The cells were kept in a shaking incubator at 300 rpm and 37 ° C., 8% CO2 overnight for about 18-20 hours.
# The following day, one of the following two methods was performed: i) capture beads method or ii) cell crash method.
# Cell crash method: the 96-well plate was placed in the centrifuge at 300 g for 5 minutes. 720 μL of the supernatant was removed. The cells were resuspended in residual 200 μL of media. The suspensions were transferred to a 96-well v-bottom plate, which was placed in the centrifuge at 300 g for an additional 5 minutes. All remaining media was removed. The cell pellets were washed with 200 μL of PBS, mixed and placed back in the centrifuge at 300 g and 4 ° C. for an additional 5 minutes. The supernatant was removed and 80 μL of PBS was added.
# 80 μL of eluted proteins/peptides from the capture beads method or the PBD solution from the cell crash method was transferred into a deepwell low binding plate (500 μL). 80 μL of ammonium hydroxide was added. The plate was kept on a shaker at 37 ° C. for 3 hours. The plate was dried in a speedvac overnight.
# The following day, the dried cell pellet was resuspended in 70 μL of 47.5% water with 0.1% FA/47.5% ACN with 0.1% FA/10 μM pepmix (10 mM stock)/5% fresh DMSO. The mixture was let sit in the plate for 1 hour to allow the dissolution of the pellet. If the sample appeared cloudy, more resuspension solution was added (50 μL at a time). 50 μL was transferred directly to the mass spec plate and the plate was sealed with the 384-well plate seal.
# (§1) Once all samples were added (including cell free), the plate was placed in an autosampler of a mass spectrometer. For the mass spectrometry analysis, methods from example 1 were employed.
# Results from certain assessment were presented blow. Cell crash method was utilized. Mass Shifted Peptide Theoretical Max signal is signal of an agent comprising —OH obtained when using the DhaA to convert input agent comprising —Cl into product agent comprising —OH form without involving cells (multiple agents may be converted simultaneously; in some embodiments, can be performed library by library). In some embodiments, each library pool plus positive and negative references was tested in a single well, which in some cases contain about a million or so cells. […]
# DhaA enzyme = DhaA enzyme (Rhodococcus rhodochrous, UniProt P0A3G2); test: Cell free peptide/DhaA conversion, Mass Shifted Peptide Theoretical Max signal (Example 6); format: biochemical; settings: DhaA converts —Cl input agent into —OH product agent, MS signal
# Sequence of DhaA enzyme (P0A3G2 whole entry): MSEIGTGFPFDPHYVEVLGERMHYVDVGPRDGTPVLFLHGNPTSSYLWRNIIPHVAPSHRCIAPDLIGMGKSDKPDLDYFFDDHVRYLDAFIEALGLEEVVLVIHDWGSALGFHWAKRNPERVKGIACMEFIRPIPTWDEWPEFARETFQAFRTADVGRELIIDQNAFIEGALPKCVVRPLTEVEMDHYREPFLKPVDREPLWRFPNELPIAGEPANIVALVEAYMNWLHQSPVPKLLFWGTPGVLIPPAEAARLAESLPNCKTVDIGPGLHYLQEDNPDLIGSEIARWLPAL
# Experimental: For the cell free systems, DPLs were diluted in a 500 μL DPW plate (library dilution plate). Individual peptides were diluted individually in low-bind tubes until making the final working dilution in PBS. At this point, the individual peptides were transferred to the library dilution plate. By having all final dilutions in one plate, a multichannel was used to transfer the diluted peptides to the cell free plates. The same design as “Source Plate” was used for the cell assay. For the peptide only plate, 45 μL of PBS was added to each well and 5 μL of the diluted library/peptide was added in triplicates. For peptide/DhaA plate, 5 μL of 50 μM DhaA enzyme was added, followed by 40 μL of PBS and 5 μL of the diluted library/peptide. Both plates were kept at the bench top thermomixer at 350 rpm and 37 ° C. overnight. The next day, 2 mL of a cell free solution was prepared with 1 mL of DMSO, 20 μL of PepMix and 980 μL of a 1:1 ratio of ACN/0.1% FA and H2O/0.1% FA. 5 μL of the cell free solution was added to a 384 well plate, followed by 45 μL of the cell free sample.
# as §1
# Results from certain assessment were presented blow. Cell crash method was utilized. Mass Shifted Peptide Theoretical Max signal is signal of an agent comprising —OH obtained when using the DhaA to convert input agent comprising —Cl into product agent comprising —OH form without involving cells (multiple agents may be converted simultaneously; in some embodiments, can be performed library by library). In some embodiments, each library pool plus positive and negative references was tested in a single well, which in some cases contain about a million or so cells. Each library pool is an individually prepared library with no purifications—all members mixed together along with side products, etc. “Cell Penetration Score” is calculated by dividing “Mass Shifted Peptide Signal in Cells” by “Mass Shifted Peptide Theoretical Max Signal” for each pair of replicates, then averaging those values across replicates; additionally or alternatively, COR and/or RPF may also be utilized.
# [2] = Mass Shifted Peptide Signal in Cells divided by Theoretical Max Signal per replicate pair, averaged
# [3] = library pool tested as mixture, MS signal of unconverted —Cl agent
# [4] = library pool tested as mixture, MS signal of —OH agent
# [5] = MS signal of unconverted —Cl agent from cells, library pool or individual peptide
# [6] = MS signal of —OH agent from cells, library pool or individual peptide
# [7] = Mass Shifted Peptide Signal in Cells divided by Mass Shifted Peptide Theoretical Max Signal, averaged across replicates
"Cell Penetration Score [1, 2]","Peptide Signal in Cells (from cells; agents comprising —Cl) [1, 3]","Mass Shifted Peptide Signal in Cells [1, 4]",Compound,"Peptide Signal in Cells (from cells; agents comprising —Cl) [1, 5]","Mass Shifted Peptide Signal in Cells [1, 6]","Cell Penetration Score [1, 7]",Mass Shifted Peptide Theoretical Max Signal (DhaA enzyme)
401,1E+07,2E+07,"CNC(=O)[C@H](C)NC(=O)[C@H](C)NC(=O)[C@H](CO)NC(=O)[C@]1(C)CCCC=CCCCCCC[C@@](C)(NC(=O)[C@H](Cc2ccccc2)NC(=O)[C@@H](NC(=O)[C@H](CC(C)C)NC(=O)CCC(=O)NCCOCCOCCCCCCCl)[C@@H](C)O)C(=O)N[C@@H]([C@@H](C)O)C(=O)N[C@@H](Cc2ccc(O)cc2)C(=O)N[C@@H](Cc2c[nH]c3ccccc23)C(=O)N[C@@H](C)C(=O)N[C@@H](CCC(N)=O)C(=O)N[C@@H](CC2CCC2)C(=O)N1 [PEP000121, HaloTagO2-Leu-Thr-Phe-R8-Thr-Tyr-Trp-Ala-Gln-Cba-S5-Ser-Ala-Ala-NHMe]",–,–,–,–
1188,8E+06,9E+07,"CC(C)C[C@H](NC(=O)CCC(=O)NCCOCCOCCCCCCCl)C(=O)N[C@H](C(=O)N[C@@H](Cc1ccccc1)C(=O)N[C@]1(C)CCCCCCC=CCCC[C@@](C)(C(=O)N[C@@H](CO)C(=O)N[C@@H](C)C(=O)N[C@@H](C)C(N)=O)NC(=O)[C@H](CC2CCC2)NC(=O)[C@H](C)NC(=O)[C@H](C)NC(=O)[C@H](Cc2c[nH]c3ccccc23)NC(=O)[C@H](Cc2ccc(O)cc2)NC(=O)[C@H](CCC(=O)O)NC1=O)[C@@H](C)O [PEP000122, HaloTagO2-Leu-Thr-Phe-R8-Glu-Tyr-Trp-Ala-Ala-Cba-S5-Ser-Ala-Ala-NH2]",–,–,–,–

# The remaining lines, values behind:
Compound,"Cell Penetration Score [1, 2]","Peptide Signal in Cells (from cells; agents comprising —Cl) [1, 3]","Mass Shifted Peptide Signal in Cells [1, 4]","Peptide Signal in Cells (from cells; agents comprising —Cl) [1, 5]","Mass Shifted Peptide Signal in Cells [1, 6]","Cell Penetration Score [1, 7]",Mass Shifted Peptide Theoretical Max Signal (DhaA enzyme)
"CNC(=O)[C@H](C)NC(=O)[C@H](C)NC(=O)[C@H](CO)NC(=O)[C@]1(C)CCCC=CCCCCCC[C@@](C)(NC(=O)[C@H](Cc2ccccc2)NC(=O)[C@@H](NC(=O)[C@H](CC(C)C)NC(=O)CCC(=O)NCCOCCOCCCCCCCl)[C@@H](C)O)C(=O)N[C@@H](C)C(=O)N[C@@H](Cc2ccc(O)cc2)C(=O)N[C@@H](Cc2c[nH]c3ccccc23)C(=O)N[C@@H](C)C(=O)N[C@@H](CCC(N)=O)C(=O)N[C@@H](CC2CCC2)C(=O)N1 [PEP000119, HaloTagO2-Leu-Thr-Phe-R8-Ala-Tyr-Trp-Ala-Gln-Cba-S5-Ser-Ala-Ala-NHMe]",304,1E+07,2E+07,–,–,–,–
"CC(C)C[C@H](NC(=O)CCC(=O)NCCOCCOCCCCCCCl)C(=O)N[C@H](C(=O)N[C@@H](Cc1ccccc1)C(=O)N[C@]1(C)CCCCCCC=CCCC[C@@](C)(C(=O)N[C@@H](CO)C(=O)N[C@@H](C)C(=O)N[C@@H](C)C(N)=O)NC(=O)[C@H](CC2CCC2)NC(=O)[C@H]([C@@H](C)O)NC(=O)[C@H](C)NC(=O)[C@H](Cc2c[nH]c3ccccc23)NC(=O)[C@H](Cc2ccc(O)cc2)NC(=O)[C@H](CCC(=O)O)NC1=O)[C@@H](C)O [PEP000123, HaloTagO2-Leu-Thr-Phe-R8-Glu-Tyr-Trp-Ala-Thr-Cba-S5-Ser-Ala-Ala-NH2]",–,–,–,1E+07,9E+07,1083,–
"CNC(=O)[C@H](C)NC(=O)[C@H](C)NC(=O)[C@H](CO)NC(=O)[C@]1(C)CCCC=CCCCCCC[C@@](C)(NC(=O)[C@H](Cc2ccccc2)NC(=O)[C@@H](NC(=O)[C@H](CC(C)C)NC(=O)CCC(=O)NCCOCCOCCCCCCCl)[C@@H](C)O)C(=O)N[C@@H](CCC(=O)O)C(=O)N[C@@H](Cc2ccc(O)cc2)C(=O)N[C@@H](Cc2c[nH]c3ccccc23)C(=O)N[C@@H](C)C(=O)N[C@@H](C)C(=O)N[C@@H](CC2CCC2)C(=O)N1 [PEP000124, HaloTagO2-Leu-Thr-Phe-R8-Glu-Tyr-Trp-Ala-Ala-Cba-S5-Ser-Ala-Ala-NHMe]",–,–,–,3E+06,5E+07,745,–
"CNC(=O)[C@H](C)NC(=O)[C@H](C)NC(=O)[C@H](CO)NC(=O)[C@]1(C)CCCC=CCCCCCC[C@@](C)(NC(=O)[C@H](Cc2ccccc2)NC(=O)[C@@H](NC(=O)[C@H](CC(C)C)NC(=O)CCC(=O)NCCOCCOCCCCCCCl)[C@@H](C)O)C(=O)N[C@@H](CCC(=O)O)C(=O)N[C@@H](Cc2ccc(O)cc2)C(=O)N[C@@H](Cc2c[nH]c3ccccc23)C(=O)N[C@@H](C)C(=O)N[C@@H]([C@@H](C)O)C(=O)N[C@@H](CC2CCC2)C(=O)N1 [PEP000126, HaloTagO2-Leu-Thr-Phe-R8-Glu-Tyr-Trp-Ala-Thr-Cba-S5-Ser-Ala-Ala-NHMe]",–,–,–,4E+06,4E+07,561,–
HaloTagO2-Leu-Thr-Phe-ReN-Ala-Tyr-Trp-Ala-Gln-Cba-Az-Ser-Ala-Ala-NH2 [PEP000127],–,–,–,0E+00,1E+06,17,8E+06
HaloTagO2-Leu-Thr-Phe-ReN-Ala-Tyr-Trp-Ala-Gln-Cba-Az-Ser-Ala-Ala-NHMe [PEP000130],–,–,–,5E+03,2E+06,27,7E+06
HaloTagO2-Leu-Thr-Phe-ReN-Glu-Tyr-Trp-Ala-Ala-Cba-Az-Ser-Ala-Ala-NH2 [PEP000133],–,–,–,0E+00,3E+05,5,5E+06
HaloTagO2-Leu-Thr-Phe-ReN-Glu-Tyr-Trp-Ala-Ala-Cba-Az-Ser-Ala-Ala-NHMe [PEP000135],–,–,–,0E+00,3E+05,7,5E+06
HaloTagO2-Leu-Thr-Phe-ReN-Glu-Tyr-Trp-Ala-Gln-Cba-Az-Ser-Ala-Ala-NH2 [PEP000128],–,–,–,0E+00,1E+05,3,4E+06
